From PMC3298710, “^111In-BnDTPA-F3: an Auger electron-emitting radiotherapeutic agent that targets nucleolin” (EJNMMI Research, 2012) come the findings set out here.

The subject of the test is 231-H2N cells. Nature of the test: Clonogenic survival. In kind it is cell-based, human. As to conditions: 24 h, amount equivalent to 2 μM 111In-BnDTPA-F3 at highest specific activity, from 100 ± 5%. On the procedure:
[…] After incubation at 37°C for 24 h, 2 × 10^3 cells were seeded per well in a 6-well plate, and 2 mL of fresh growth medium was added. After 7 to 14 days, cell colonies were stained with methylene blue (2% methylene blue in water/methanol 1:1) and counted. Combination indices (CI) of ^111In with BnDTPA-F3 were determined as described by Edelman et al.. A CI < 0.9 indicates superadditivity.

With `[Cl][111In]([Cl])[Cl]` [111In chloride], the “clonogenic survival, equivalent amount of 111In chloride” value came out at 46 ± 4%.
